Assays:
pigweed = test: Test B pre/postemergence pigweed; assay type: in vivo, Amaranthus retroflexus; conditions: for Plant response rating, Redroot pigweed: scale of 0 to 10 where 0 is no effect and 10 is complete control
Method in brief: (§1)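 Herbicidal effect was estimated by eye on a ten-point control scale after plants spent twelve to sixteen days in a greenhouse following soil or foliar treatment. Foliar sprays targeted plants at one to four leaves; all doses were formulated in a non-phytotoxic solvent with surfactant.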

giant foxtail = test: Test B pre/postemergence giant foxtail; assay type: in vivo, Setaria faberii
Method in brief: as §1

velvetleaf = test: Test B pre/postemergence velvetleaf; assay type: in vivo, Abutilon theophrasti; conditions: for Plant response rating, Velvetleaf: scale of 0 to 10 where 0 is no effect and 10 is complete control
Method in brief: as §1

surinam grass = test: Test B pre/postemergence surinam grass; assay type: in vivo, Brachiaria decumbens
Method in brief: as §1

crabgrass = test: Test B pre/postemergence crabgrass; assay type: in vivo, Digitaria sanguinalis
Method in brief: as §1

purple nutsedge = test: Test B pre/postemergence purple nutsedge; assay type: in vivo, Cyperus rotundus; conditions: for Plant response rating, Nutsedge: scale of 0 to 10 where 0 is no effect and 10 is complete control
Method in brief: as §1

rice = test: Test B flood test rice; assay type: in vivo, Oryza sativa
Method in brief: (§2)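 Plants were grown to the 2-leaf stage before treatment with test chemical, then held in a greenhouse for twelve to sixteen days. Injury was visually rated against untreated controls on a 0–10 scale, where 0 is no effect and 10 is complete control.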

wild oat = test: Test B pre/postemergence wild oat; assay type: in vivo, Avena fatua; conditions: for Plant response rating, Wild oats: scale of 0 to 10 where 0 is no effect and 10 is complete control
Method in brief: as §1

corn = test: Test B pre/postemergence corn; assay type: in vivo, Zea mays
Method in brief: as §1

cocklebur = test: Test B pre/postemergence cocklebur; assay type: in vivo, Xanthium strumarium
Method in brief: as §1

soybean = test: Test B pre/postemergence soybean; assay type: in vivo, Glycine max; conditions: for Plant response rating, Soybean: scale of 0 to 10 where 0 is no effect and 10 is complete control
Method in brief: as §1

sugar beet = test: Test B pre/postemergence sugar beet; assay type: in vivo, Beta vulgaris; conditions: for Plant response rating, Sugarbeets: scale of 0 to 10 where 0 is no effect and 10 is complete control
Method in brief: as §1

bedstraw = test: Test B pre/postemergence bedstraw; assay type: in vivo, Galium aparine; conditions: Postemergence
Method in brief: as §1

bamyardgrass = test: Test B flood test barnyardgrass; assay type: in vivo, Echinochloa crus-galli
Method in brief: as §2

smallflower flatsedge = test: Test B flood test smallflower flatsedge; assay type: in vivo, Cyperus difformis
Method in brief: as §2

blackgrass = test: Test B pre/postemergence blackgrass; assay type: in vivo, Alopecurus myosuroides
Method in brief: as §1

[1] = Postemergence, Rate 250 g/ha, scale 0 to 10
[2] = Preemergence, Rate 250 g/ha, scale 0 to 10, 0 is no effect, 10 is complete control
[3] = Preemergence, Rate 500 g/ha, scale 0 to 10, 0 is no effect, 10 is complete control
[4] = Rate 62 g/ha, Postemergence, scale 0 to 10 (0 no effect, 10 complete control)
[5] = Rate 125 g/ha, Postemergence, scale 0 to 10, 0 is no effect, 10 is complete control
[6] = Postemergence, Rate 500 g/ha, scale of 0 to 10 where 0 is no effect and 10 is complete control
[7] = Preemergence, Rate 62 g/ha, scale of 0 to 10 where 0 is no effect and 10 is complete control
[8] = Preemergence, Rate 125 g/ha, scale of 0 to 10 where 0 is no effect and 10 is complete control
[9] = Rate 62 g/ha, flood test species, Pre-emergence, visual evaluation after twelve to sixteen days
[10] = Rate 125 g/ha, under heading Pre-emergence, flood test species, visual evaluation after twelve to sixteen days
[11] = Rate 250 g/ha, Pre-emergence (flood test species), scale 0 to 10, 0 is no effect, 10 is complete control
[12] = Rate 500 g/ha, Pre-emergence, flood test species, scale 0 to 10 (0 no effect, 10 complete control)

For `CC(C)N(C(=O)n1oc(=O)n(CCCl)c1=O)c1ccccc1` [Compound 469], the “Redroot pigweed plant response rating” value (pigweed; [1]) was 2, the “Plant response rating, Redroot pigweed” value (pigweed; Preemergence, Rate 62 g/ha) was 5 and the “Plant response rating, Redroot pigweed” value (pigweed; Preemergence, Rate 125 g/ha) was 10. The “Redroot pigweed plant response rating” value (pigweed; [2]) was 10, the “Redroot pigweed plant response rating” value (pigweed; [3]) was 10 and the “Redroot pigweed plant response rating” value (pigweed; [4]) was 0. For the same molecule, the “Redroot pigweed plant response rating” value (pigweed; [5]) was 0, the “Giant foxtail plant response rating” value (giant foxtail; [1]) was 9 and the “Giant foxtail plant response rating” value (giant foxtail; [6]) was 9. For the same molecule, the “Plant response rating, Giant foxtail” value (giant foxtail; [7]) was 9, the “Plant response rating, Giant foxtail” value (giant foxtail; [8]) was 10 and the “Giant foxtail plant response rating” value (giant foxtail; [2]) was 10. The “Giant foxtail plant response rating” value (giant foxtail; [3]) was 10, the “Giant foxtail plant response rating” value (giant foxtail; [4]) was 8 and the “Giant foxtail plant response rating” value (giant foxtail; [5]) was 9. For the same molecule, the “Velvetleaf plant response rating” value (velvetleaf; [1]) was 0, the “Plant response rating, Velvetleaf” value (velvetleaf; Preemergence, Rate 62 g/ha) was 4 and the “Plant response rating, Velvetleaf” value (velvetleaf; Preemergence, Rate 125 g/ha) was 5. The “Velvetleaf plant response rating” value (velvetleaf; [2]) was 6, the “Velvetleaf plant response rating” value (velvetleaf; [3]) was 7 and the “Velvetleaf plant response rating” value (velvetleaf; [4]) was 0. The “Velvetleaf plant response rating” value (velvetleaf; [5]) was 0, the “B. signalgrass plant response rating” value (surinam grass; Postemergence, Rate 250 g/ha, scale 0 to 10, 0 no effect, 10 complete control) was 2 and the “B. signalgrass plant response rating” value (surinam grass; [6]) was 6. For the same molecule, the “Plant response rating, B. signalgrass” value (surinam grass; [7]) was 3, the “Plant response rating, B. signalgrass” value (surinam grass; [8]) was 7 and the “B. signalgrass plant response rating” value (surinam grass; [2]) was 7. The “B. signalgrass plant response rating” value (surinam grass; [3]) was 10, the “B. signalgrass plant response rating” value (surinam grass; [4]) was 0 and the “B. signalgrass plant response rating” value (surinam grass; [5]) was 2. For the same molecule, the “Crabgrass plant response rating” value (crabgrass; [1]) was 9, the “Crabgrass plant response rating” value (crabgrass; [6]) was 9 and the “Plant response rating, Crabgrass” value (crabgrass; [7]) was 9. The “Plant response rating, Crabgrass” value (crabgrass; [8]) was 10, the “Crabgrass plant response rating” value (crabgrass; [2]) was 10 and the “Crabgrass plant response rating” value (crabgrass; [3]) was 10. The “Crabgrass plant response rating” value (crabgrass; [4]) was 3, the “Crabgrass plant response rating” value (crabgrass; [5]) was 6 and the “Nutsedge plant response rating” value (purple nutsedge; [1]) was 0. For the same molecule, the “Plant response rating, Nutsedge” value (purple nutsedge; Preemergence, Rate 62 g/ha) was 0, the “Plant response rating, Nutsedge” value (purple nutsedge; Preemergence, Rate 125 g/ha) was 0 and the “Nutsedge plant response rating” value (purple nutsedge; [2]) was 0. For the same molecule, the “Nutsedge plant response rating” value (purple nutsedge; [4]) was 0, the “Nutsedge plant response rating” value (purple nutsedge; [5]) was 0 and the “Plant response rating, Rice (0 to 10 scale, 0 is no effect, 10 is complete control)” value (rice; [9]) was 0. For the same molecule, the “Rice plant response rating (0 to 10 scale, 0 is no effect, 10 is complete control)” value (rice; [10]) was 0, the “Rice plant response rating” value (rice; [11]) was 0 and the “Rice plant response rating” value (rice; [12]) was 0. The “Wild oats plant response rating” value (wild oat; [1]) was 3, the “Plant response rating, Wild oats” value (wild oat; Preemergence, Rate 62 g/ha) was 7 and the “Plant response rating, Wild oats” value (wild oat; Preemergence, Rate 125 g/ha) was 7. For the same molecule, the “Wild oats plant response rating” value (wild oat; [2]) was 10, the “Wild oats plant response rating” value (wild oat; [3]) was 10 and the “Wild oats plant response rating” value (wild oat; [4]) was 0. For the same molecule, the “Corn plant response rating” value (corn; [1]) was 2, the “Corn plant response rating” value (corn; [6]) was 4 and the “Plant response rating, Corn” value (corn; [7]) was 0. For the same molecule, the “Plant response rating, Corn” value (corn; [8]) was 2, the “Corn plant response rating” value (corn; [2]) was 8 and the “Corn plant response rating” value (corn; [3]) was 9. For the same molecule, the “Corn plant response rating” value (corn; [4]) was 0, the “Corn plant response rating” value (corn; [5]) was 0 and the “Cocklebur plant response rating” value (cocklebur; [1]) was 0. The “Cocklebur plant response rating” value (cocklebur; [6]) was 3, the “Plant response rating, Cocklebur” value (cocklebur; [7]) was 0 and the “Plant response rating, Cocklebur” value (cocklebur; [8]) was 0. For the same molecule, the “Cocklebur plant response rating” value (cocklebur; [2]) was 0, the “Cocklebur plant response rating” value (cocklebur; [3]) was 0 and the “Cocklebur plant response rating” value (cocklebur; [4]) was 0. For the same molecule, the “Cocklebur plant response rating” value (cocklebur; [5]) was 0, the “Soybean plant response rating” value (soybean; [1]) was 4 and the “Plant response rating, Soybean” value (soybean; Preemergence, Rate 62 g/ha) was 0. The “Plant response rating, Soybean” value (soybean; Preemergence, Rate 125 g/ha) was 0, the “Soybean plant response rating” value (soybean; [2]) was 0 and the “Soybean plant response rating” value (soybean; [3]) was 2. For the same molecule, the “Soybean plant response rating” value (soybean; [4]) was 0, the “Soybean plant response rating” value (soybean; [5]) was 1 and the “Sugarbeets plant response rating” value (sugar beet; [1]) was 2. The “Plant response rating, Sugarbeets” value (sugar beet; Preemergence, Rate 62 g/ha) was 6, the “Plant response rating, Sugarbeets” value (sugar beet; Preemergence, Rate 125 g/ha) was 8 and the “Sugarbeets plant response rating” value (sugar beet; [2]) was 8. For the same molecule, the “Sugarbeets plant response rating” value (sugar beet; [3]) was 10, the “Sugarbeets plant response rating” value (sugar beet; [4]) was 0 and the “Sugarbeets plant response rating” value (sugar beet; [5]) was 0. The “Bedstraw plant response rating” value (bedstraw; Rate 250 g/ha, scale 0 to 10) was 6, the “Bedstraw plant response rating” value (bedstraw; Rate 500 g/ha, scale of 0 to 10 where 0 is no effect and 10 is complete control) was 6 and the “Bedstraw plant response rating” value (bedstraw; Rate 62 g/ha, scale 0 to 10 (0 no effect, 10 complete control)) was 0. For the same molecule, the “Plant response rating, Barnyardgrass (0 to 10 scale, 0 is no effect, 10 is complete control)” value (bamyardgrass; [9]) was 0, the “Barnyardgrass plant response rating (0 to 10 scale, 0 is no effect, 10 is complete control)” value (bamyardgrass; [10]) was 0 and the “Barnyardgrass plant response rating” value (bamyardgrass; [11]) was 0. The “Barnyardgrass plant response rating” value (bamyardgrass; [12]) was 0, the “Plant response rating, S. Flatsedge (0 to 10 scale, 0 is no effect, 10 is complete control)” value (smallflower flatsedge; [9]) was 0 and the “S. Flatsedge plant response rating (0 to 10 scale, 0 is no effect, 10 is complete control)” value (smallflower flatsedge; [10]) was 0. The “S. Flatsedge plant response rating” value (smallflower flatsedge; [11]) was 0, the “S. Flatsedge plant response rating” value (smallflower flatsedge; [12]) was 0 and the “Blackgrass plant response rating” value (blackgrass; [1]) was 9. For the same molecule, the “Blackgrass plant response rating” value (blackgrass; [6]) was 9, the “Plant response rating, Blackgrass” value (blackgrass; [7]) was 6 and the “Plant response rating, Blackgrass” value (blackgrass; [8]) was 8. The “Blackgrass plant response rating” value (blackgrass; [2]) was 9, the “Blackgrass plant response rating” value (blackgrass; [3]) was 10 and the “Blackgrass plant response rating” value (blackgrass; [4]) was 7. The “Blackgrass plant response rating” value (blackgrass; [5]) was 7.

— patent publication US6737383B1, “Herbicidal oxadiazolidines” (priority 1999, dated 2004)
